ChEMBL document CHEMBL4373641, “Synthesis and direct comparison of the anticancer activities of phomopsolides D and E and two 7-oxa-/7-aza-analogues” (Medchemcomm, 2019)

What was measured:
Type in all cases: functional, cell-based
TK-10 = test: Antiproliferative activity against human TK10 cells assessed as reduction in cell viability after 48 hrs by SRB assay; conditions: TK-10, 48 h
OVCAR-4 = test: Antiproliferative activity against human OVCAR4 cells assessed as reduction in cell viability after 48 hrs by SRB assay; conditions: OVCAR-4, 48 h
NCI-H522 = test: Antiproliferative activity against human NCI-H522 cells assessed as reduction in cell viability after 48 hrs by SRB assay; conditions: NCI-H522, 48 h, pooled result: one value given for 8 cell lines, strains, targets or settings
SR = test: Antiproliferative activity against human SR cells assessed as reduction in cell viability after 48 hrs by SRB assay
HOP-92 = test: Antiproliferative activity against human HOP92 cells assessed as reduction in cell viability after 48 hrs by SRB assay; conditions: HOP-92, 48 h
CCRF-CEM = test: Antiproliferative activity against human CCRF-CEM cells assessed as reduction in cell viability after 48 hrs by SRB assay
MDA-MB-468 = test: Antiproliferative activity against human MDA-MB-468 cells assessed as reduction in cell viability after 48 hrs by SRB assay; conditions: MDA-MB-468, 48 h
A498 = test: Antiproliferative activity against human A498 cells assessed as reduction in cell viability after 48 hrs by SRB assay; conditions: A498, 48 h
HL-60(TB) = test: Antiproliferative activity against human HL-60(TB) cells assessed as reduction in cell viability after 48 hrs by SRB assay; conditions: HL-60, 48 h
786-0 = test: Antiproliferative activity against human 786-0 cells assessed as reduction in cell viability after 48 hrs by SRB assay; conditions: 786-0, 48 h
Hs-578T = test: Antiproliferative activity against human Hs 578T cells assessed as reduction in cell viability after 48 hrs by SRB assay
MOLT-4 = test: Antiproliferative activity against human MOLT4 cells assessed as reduction in cell viability after 48 hrs by SRB assay; conditions: MOLT-4, 48 h
HT-29 = test: Antiproliferative activity against human HT-29 cells assessed as reduction in cell viability after 48 hrs by SRB assay; conditions: HT-29, 48 h
ACHN = test: Antiproliferative activity against human ACHN cells assessed as reduction in cell viability after 48 hrs by SRB assay
MDA-MB-231 = test: Antiproliferative activity against human MDA-MB-231 cells assessed as reduction in cell viability after 48 hrs by SRB assay; conditions: MDA-MB-231, 48 h
K562 = test: Antiproliferative activity against human K562 cells assessed as reduction in cell viability after 48 hrs by SRB assay; conditions: K562, 48 h
SW-620 = test: Antiproliferative activity against human SW620 cells assessed as reduction in cell viability after 48 hrs by SRB assay; conditions: SW-620, 48 h
OVCAR-5 = test: Antiproliferative activity against human OVCAR5 cells assessed as reduction in cell viability after 48 hrs by SRB assay; conditions: OVCAR-5, 48 h
DU-145 = test: Antiproliferative activity against human DU145 cells assessed as reduction in cell viability after 48 hrs by SRB assay; conditions: DU-145, 48 h
COLO 205 = test: Antiproliferative activity against human COLO205 cells assessed as reduction in cell viability after 48 hrs by SRB assay; conditions: COLO 205, 48 h
SK-OV-3 = test: Antiproliferative activity against human SKOV3 cells assessed as reduction in cell viability after 48 hrs by SRB assay; conditions: SK-OV-3, 48 h
OVCAR-3 = test: Antiproliferative activity against human OVCAR3 cells assessed as reduction in cell viability after 48 hrs by SRB assay; conditions: OVCAR-3, 48 h
KM12 = test: Antiproliferative activity against human KM12 cells assessed as reduction in cell viability after 48 hrs by SRB assay; conditions: KM12, 48 h
BT-549 = test: Antiproliferative activity against human BT549 cells assessed as reduction in cell viability after 48 hrs by SRB assay; conditions: BT-549, 48 h
SF-539 = test: Antiproliferative activity against human SF539 cells assessed as reduction in cell viability after 48 hrs by SRB assay; conditions: SF-539, 48 h
PC-3 = test: Antiproliferative activity against human PC3 cells assessed as reduction in cell viability after 48 hrs by SRB assay; conditions: PC-3, 48 h
SN12C = test: Antiproliferative activity against human SN12C cells assessed as reduction in cell viability after 48 hrs by SRB assay
SF-268 = test: Antiproliferative activity against human SF268 cells assessed as reduction in cell viability after 48 hrs by SRB assay; conditions: SF-268, 48 h
HCT-116 = test: Antiproliferative activity against human HCT116 cells assessed as reduction in cell viability after 48 hrs by SRB assay; conditions: HCT-116, 48 h
HCT-15 = test: Antiproliferative activity against human HCT15 cells assessed as reduction in cell viability after 48 hrs by SRB assay; conditions: HCT-15, 48 h
NCI/ADR-RES = test: Antiproliferative activity against human NCI/ADR-RES cells assessed as reduction in cell viability after 48 hrs by SRB assay
U-251 = test: Antiproliferative activity against human U251 cells assessed as reduction in cell viability after 48 hrs by SRB assay; conditions: U-251, 48 h
SNB-75 = test: Antiproliferative activity against human SNB75 cells assessed as reduction in cell viability after 48 hrs by SRB assay; conditions: SNB-75, 48 h
CAKI-1 = test: Antiproliferative activity against human CAKI-1 cells assessed as reduction in cell viability after 48 hrs by SRB assay; conditions: CAKI-1, 48 h
MDA-MB-435 = test: Antiproliferative activity against human MDA-MB-435 cells assessed as reduction in cell viability after 48 hrs by SRB assay; conditions: MDA-MB-435, 48 h
SF-295 = test: Antiproliferative activity against human SF295 cells assessed as reduction in cell viability after 48 hrs by SRB assay; conditions: SF-295, 48 h
RXF 393 = test: Antiproliferative activity against human RXF393 cells assessed as reduction in cell viability after 48 hrs by SRB assay; conditions: RXF 393, 48 h
HCC 2998 = test: Antiproliferative activity against human HCC2998 cells assessed as reduction in cell viability after 48 hrs by SRB assay; conditions: HCC 2998, 48 h
RPMI-8226 = test: Antiproliferative activity against human RPMI8226 cells assessed as reduction in cell viability after 48 hrs by SRB assay; conditions: RPMI-8226, 48 h
IGROV-1 = test: Antiproliferative activity against human IGROV1 cells assessed as reduction in cell viability after 48 hrs by SRB assay; conditions: IGROV-1, 48 h
OVCAR-8 = test: Antiproliferative activity against human OVCAR8 cells assessed as reduction in cell viability after 48 hrs by SRB assay; conditions: OVCAR-8, 48 h
MCF7 = test: Antiproliferative activity against human MCF7 cells assessed as reduction in cell viability after 48 hrs by SRB assay; conditions: MCF7, 48 h
UO-31 = test: Antiproliferative activity against human UO31 cells assessed as reduction in cell viability after 48 hrs by SRB assay; conditions: UO-31, 48 h
T47D = test: Antiproliferative activity against human T47D cells assessed as reduction in cell viability after 48 hrs by SRB assay
UACC-62 = test: Antiproliferative activity against human UACC62 cells assessed as reduction in cell viability after 48 hrs by SRB assay; conditions: UACC-62, 48 h, pooled result: one value given for 8 cell lines, strains, targets or settings
SNB-19 = test: Antiproliferative activity against human SNB19 cells assessed as reduction in cell viability after 48 hrs by SRB assay; conditions: SNB-19, 48 h

Q: Which IC50 (TK-10) does the source give for `C/C=C(\C)C(=O)O[C@H]1C=CC(=O)O[C@H]1COC(=O)[C@H](C)O` here?
A: The IC50 was 15 µM.

Q: And the IC50 (OVCAR-4)?
A: The IC50 was 16 µM.

Q: What about the IC50 (NCI-H522) of the same molecule?
A: The IC50 was 19 µM.

Q: And the IC50 (SR)?
A: Its IC50 is 2 to 49 µM.

Q: And the IC50 (HOP-92)?
A: Its IC50 is 2 to 49 µM.

Q: And the IC50 (CCRF-CEM)?
A: Its IC50 is 2 to 49 µM.

Q: What about the IC50 (MDA-MB-468) of the same molecule?
A: Its IC50 is 2 to 49 µM.

Q: What about the IC50 (A498) of the same molecule?
A: The IC50 was 15 µM.

Q: What about the IC50 (HL-60(TB)) of the same molecule?
A: Its IC50 is 2 to 49 µM.

Q: What about the IC50 (786-0) of the same molecule?
A: Its IC50 is 15 µM.

Q: And the IC50 (Hs-578T)?
A: Its IC50 is 12 µM.

Q: What about the IC50 (MOLT-4) of the same molecule?
A: The IC50 was 2 to 49 µM.

Q: And the IC50 (HT-29)?
A: The IC50 was 11 µM.

Q: What about the IC50 (ACHN) of the same molecule?
A: The IC50 was 15 µM.

Q: What about the IC50 (MDA-MB-231) of the same molecule?
A: Its IC50 is 12 µM.

Q: And the IC50 (K562)?
A: The IC50 was 2 to 49 µM.

Q: What about the IC50 (SW-620) of the same molecule?
A: Its IC50 is 11 µM.

Q: And the IC50 (OVCAR-5)?
A: Its IC50 is 16 µM.

Q: And the IC50 (DU-145)?
A: Its IC50 is 16 µM.

Q: And the IC50 (COLO 205)?
A: Its IC50 is 11 µM.

Q: What about the IC50 (SK-OV-3) of the same molecule?
A: Its IC50 is 16 µM.

Q: What about the IC50 (OVCAR-3) of the same molecule?
A: Its IC50 is 16 µM.

Q: What about the IC50 (KM12) of the same molecule?
A: The IC50 was 11 µM.

Q: What about the IC50 (BT-549) of the same molecule?
A: The IC50 was 2 to 49 µM.

Q: What about the IC50 (SF-539) of the same molecule?
A: The IC50 was 16 µM.

Q: And the IC50 (PC-3)?
A: The IC50 was 16 µM.

Q: And the IC50 (SN12C)?
A: The IC50 was 15 µM.

Q: And the IC50 (SF-268)?
A: Its IC50 is 16 µM.

Q: What about the IC50 (HCT-116) of the same molecule?
A: The IC50 was 11 µM.

Q: What about the IC50 (HCT-15) of the same molecule?
A: Its IC50 is 11 µM.

Q: What about the IC50 (NCI/ADR-RES) of the same molecule?
A: The IC50 was 12 µM.

Q: And the IC50 (U-251)?
A: Its IC50 is 16 µM.

Q: What about the IC50 (SNB-75) of the same molecule?
A: The IC50 was 16 µM.

Q: What about the IC50 (CAKI-1) of the same molecule?
A: Its IC50 is 15 µM.

Q: And the IC50 (MDA-MB-435)?
A: Its IC50 is 12 µM.

Q: What about the IC50 (SF-295) of the same molecule?
A: The IC50 was 16 µM.

Q: What about the IC50 (RXF 393) of the same molecule?
A: Its IC50 is 15 µM.

Q: What about the IC50 (HCC 2998) of the same molecule?
A: Its IC50 is 11 µM.

Q: What about the IC50 (RPMI-8226) of the same molecule?
A: Its IC50 is 2 to 49 µM.

Q: And the IC50 (IGROV-1)?
A: The IC50 was 16 µM.

Q: And the IC50 (OVCAR-8)?
A: Its IC50 is 16 µM.

Q: What about the IC50 (MCF7) of the same molecule?
A: Its IC50 is 12 µM.

Q: And the IC50 (UO-31)?
A: The IC50 was 15 µM.

Q: And the IC50 (T47D)?
A: Its IC50 is 12 µM.

Q: And the IC50 (UACC-62)?
A: The IC50 was 13 µM.

Q: And the IC50 (SNB-19)?
A: The IC50 was 16 µM.

Q: What does the source list for `C/C=C(\C)C(=O)O[C@H]1C=CC(=O)O[C@H]1CC[C@H](O)[C@H](C)O` [6,7-DIHYDROPHOMOPSOLIDE B]?
A: IC50 (TK-10): 2 to 49 µM; IC50 (OVCAR-4): 18 µM; IC50 (NCI-H522): 18 µM; IC50 (SR): 2 to 49 µM; IC50 (HOP-92): 2 to 49 µM; IC50 (CCRF-CEM): 2 to 49 µM; IC50 (MDA-MB-468): 2 to 49 µM; IC50 (A498): 2 to 49 µM; IC50 (HL-60(TB)): 2 to 49 µM; IC50 (786-0): 2 to 49 µM; IC50 (Hs-578T): 11 µM; IC50 (MOLT-4): 2 to 49 µM; IC50 (HT-29): 2 to 49 µM; IC50 (ACHN): 2 to 49 µM; IC50 (MDA-MB-231): 11 µM; IC50 (K562): 2 to 49 µM; IC50 (SW-620): 2 to 49 µM; IC50 (OVCAR-5): 18 µM; IC50 (DU-145): 18 µM; IC50 (COLO 205): 2 to 49 µM; IC50 (SK-OV-3): 18 µM; IC50 (OVCAR-3): 18 µM; IC50 (KM12): 2 to 49 µM; IC50 (BT-549): 2 to 49 µM; IC50 (SF-539): 17 µM; IC50 (PC-3): 18 µM; IC50 (SN12C): 2 to 49 µM; IC50 (SF-268): 17 µM; IC50 (HCT-116): 2 to 49 µM; IC50 (HCT-15): 2 to 49 µM; IC50 (NCI/ADR-RES): 11 µM; IC50 (U-251): 17 µM; IC50 (SNB-75): 17 µM; IC50 (CAKI-1): 2 to 49 µM; IC50 (MDA-MB-435): 11 µM; IC50 (SF-295): 17 µM; IC50 (RXF 393): 2 to 49 µM; IC50 (HCC 2998): 2 to 49 µM; IC50 (RPMI-8226): 2 to 49 µM; IC50 (IGROV-1): 18 µM; IC50 (OVCAR-8): 18 µM; IC50 (MCF7): 11 µM; IC50 (UO-31): 2 to 49 µM; IC50 (T47D): 11 µM; IC50 (UACC-62): 2 to 49 µM; IC50 (SNB-19): 17 µM
